In patent US20200289521A1, “USE OF VITAMIN K IN COMBINATION WITH ANTICOAGULANTS” (KAYDENCE PHARMA AS, priority 2019, published 2020):

How the values were obtained:
[1] = tested on: human vascular smooth muscle cells (hVSMCs); test: ATP measurement in hVSMCs with warfarin and/or vitamin K2 (luminescence); assay type: cell-based; conditions: 24 hours
Method: This study was performed in order to determine the effect of vitamin K2 (MK-7) on warfarin-induced oxidative stress in muscles. To perform this study, human vascular smooth muscle cells (hVSMCs; 5,000 cells/well) were plated in 96-well dark plates and left to adhere overnight. Next, cells were incubated for 24 hours with either vehicle only (as blank control), warfarin (10 or 50 μM), vitamin K2 (MK-7) (10 μM), or a combination of warfarin (50 μM) and vitamin K2 (MK-7) (10 μM). Hoechst was added to correct for cell number (1 μg/mL). Next, ATP was measured using mammalian lysis buffer for 5 minutes after which 50 μL ATP substrate solution was added to the wells and incubated for 10 minutes in a dark environment. Finally, medium was transferred to a white plate to measure luminescence.

[2] = tested on: VSMCs; test: ATP increase in VSMCs, 48 hours, with CoCl2 arm (luminescence); assay type: cell-based
Method: (§1) This study was performed to further investigate the origin of ATP production that is influenced by vitamin K2 (MK-7). To perform this study, VSCMs (5000 cells/well) were plated in 96-well plates and left to adhere overnight. Next, cells were incubated for 48 hours with either vehicle, CoCl2 (100 μM), vitamin K2 (MK-7) (10 μM), or UQ10 (10 μM). Hoechst was added to correct for cell number (1 μg/mL). Next, ATP was measured using mammalian lysis buffer for 5 minutes, after which 50 μL ATP substrate solution was added to the wells and incubated for 10 minutes in a dark environment. Finally, medium was transferred to a white plate to measure luminescence.

[3] = Thrombin Time (TT), Coag-Chrom 3003, treated Sprague-Dawley rats; assay type: in vivo; conditions: added to dabigatran and to rivaroxaban
Method: To perform the study, 45 wild-type male Sprague-Dawley and 45 transgenic male Ren-2 rats [TGR(mREN-2)27] at the age of 10-11 weeks at the beginning of the treatment period were purchased from animal facility IKEM-CEM Institute of Clinical and Experimental Medicine (Prague, Czech Republic). All animals in the experiment were housed in individually ventilated cages (2-3 rats per cage) and kept in the animal rooms of JCET at a relative humidity of 55±10%, a temperature of 22±2° C., and a light cycle of 7 AM to 7 PM. The rats had free access to food and water. After delivery, animals were randomly divided into 10 experimental groups (5 or 10 rats per group), as indicated below in Table 1.
Four days before the start of the treatment, the first part of animals' body weight and food intake was measured in selected representative three cages (rats n=9) to calculate the appropriate amount of tested compounds required for addition to the diet to obtain the dosing indicated in Table 1. It was estimated that food intake was approximately 30 g of chow per rat per day. […] The body mass of the rats was measured at the beginning and at the end of treatment.
Prothrombin Time (PT), activated Partial Thromboplastin Time (aPTT), Thrombin Time (TT) and fibrinogen levels (Clauss method) were determined according to the manufacturer's instructions using Coag-Chrom 3003 apparatus (Bio-ksel, Grudziadz, Poland). […]

[4] = tested on: VSMCs; test: ATP increase in VSMCs, 24 hours (luminescence); assay type: cell-based; conditions: 10 μM
Method: This study was performed to determine if vitamin K2 (MK-7) affects ATP generation. ATP is generated via glycolysis in the cytoplasm and via both the Krebs-cycle and oxidative phosphorylation in the mitochondria. ATP generation via glycolysis delivers only 2 ATP, whereas ATP generation in the mitochondria generates some 32 ATP.
as §1, with “To” for “This study was performed to further investigate the origin of ATP production that is influenced by vitamin K2 (MK-7). To”, “24” for “48”, “vehicle,” for “vehicle, CoCl2 (100 μM),”, “minutes” for “minutes,”, “Finally, the” for “Finally,”, “luminescence” for “luminescence.”

[5] = tested on: VSMCs; test: Warfarin-induced oxidative stress in VSMCs, effect of vitamin K2 (DCFDA); assay type: cell-based
Method: It is known that the level of reactive oxygen species in cells can be measured by measuring the conversion of 2′,7′-dichlorofluorescein diacetate (DCFDA) to the fluorescent dye 2′,7′-dichlorofluorescein (DCF). The fluorescence generated by cells subjected to DCFDA is directly proportional to the amount of oxidized DCFDA to DCF.
This study was performed to determine if vitamin K2 (MK-7) reduces warfarin-induced oxidative stress. To perform the study, VSMCs (10,000 cells/well) were plated in a 96-well plate and left to adhere overnight. Next, cells were incubated for 24 hours with 100 μM warfarin. The next day, 20 μM DCFDA was added to the cells for 1 hour. The cells were then incubated for 5 hours with normal medium (baseline), vitamin K2 (MK-7), or warfarin. Fluorescence was measured and fluorescence intensity was normalized for cell count.

**Q.** With `CC(C)=CCC/C(C)=C/CC/C(C)=C/CC/C(C)=C/CC/C(C)=C/CC/C(C)=C/CC/C(C)=C/CC1=C(C)C(=O)c2ccccc2C1=O` [vitamin K2 (MK-7)] as the compound, how does the “cell ATP / ATP generation” value ([1]; warfarin 10 or 50 μM, vitamin K2 (MK-7) 10 μM) read?
**A.** increased cell ATP

**Q.** And the “oxidative stress induced by warfarin” value ([1]; warfarin 50 μM + vitamin K2 (MK-7) 10 μM)?
**A.** counteracted the oxidative stress induced by warfarin

**Q.** What about the “ATP levels compared to CoCl2” value ([2]; 10 μM vs CoCl2 100 μM) of the same compound?
**A.** significant higher ATP levels

**Q.** What about the “ATP production compared to vehicle” value ([2]; CoCl2 100 μM, vitamin K2 (MK-7) 10 μM) of the same compound?
**A.** increased ATP production slightly, though significant

**Q.** What about the “increase of thrombin time by addition of vitamin K2 (MK-7)” value [3] of the same compound?
**A.** 5-7%

**Q.** What about the “ATP production compared to the vehicle” value [4] of the same compound?
**A.** increased ATP production in VSMCs significantly (p=0.014)

**Q.** And the normal oxidative stress ([5]; 5 hours incubation, no warfarin)?
**A.** reduced not only normal oxidative stress

**Q.** What about the warfarin-induced oxidative stress ([5]; 24 hours 100 μM warfarin, then 5 hours incubation) of the same compound?
**A.** counteracted the warfarin-induced oxidative stress
